Where a chain is given by its changes, count along the chain named. Peptide text beside a SMILES is read from it.
T1: OutS_S49R (Dickeya dadantii, UniProt Q01567, S49R)
T1 construct: made in house; host or cells: E. coli (periplasm)
T1 sequence (Q01567 21-133 S49R): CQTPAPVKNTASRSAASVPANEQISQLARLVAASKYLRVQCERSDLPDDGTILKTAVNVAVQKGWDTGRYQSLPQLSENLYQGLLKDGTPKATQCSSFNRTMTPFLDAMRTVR

T2: OutS_Q114A (Dickeya dadantii, UniProt Q01567, Q114A)
T2 construct: made in house; host or cells: E. coli (periplasm)
T2 sequence (Q01567 21-133 Q114A): T1 sequence (Q01567 21-133 S49R) with R29S, Q94A

T3: OutS_L100A (Dickeya dadantii, UniProt Q01567, L100A)
T3 construct: made in house; host or cells: E. coli (periplasm)
T3 sequence (Q01567 21-133 L100A): T1 sequence (Q01567 21-133 S49R) with R29S, L80A

T4: OutS_L96A (Dickeya dadantii, UniProt Q01567, L96A)
T4 construct: made in house; host or cells: E. coli (periplasm)
T4 sequence (Q01567 21-133 L96A): T1 sequence (Q01567 21-133 S49R) with R29S, L76A

B1: OutD: Dickeya dadantii secretin of the type II secretion system, UniProt Q01565 (protein, UniProt Q01565 28-710, looked up)
Secretin OutD: AEFSASFKGTDIQEFINTVSKNLNKTVIIDPTVRGTISVRSYDMMNEGQYYQFFLSVLDVYGFSVVPMDNGVLKVIRSKDAKSSSIPLANNEQPGIGDELVTRVVPLNNVAARDLAPLLRQLNDNAGAGTVVHYEPSNVLLMTGRAAVIKRLVDIVNTVDKTGDREMVTVPLTYASAEDVAKLVNDLNKSDEKNALPSTMLANVVADGRTNSVVVSGEENARQRAVEMIRQLDRKQVVQGGTKVIYLKYAKALDLIEVLAGNGTSGNRNSSSSNASRPSSPRSGSSSNSNSSSGSSGSSSGSSSSSSSSSSMGFGSAFGSTSSSGGRTITIQGKEVTVRAHDQTNSLIITAPPDIMRDLEQVINQLDIRRPQVLVEAIIAEIQDADGLNLGIQWANKRAGMTQFTNTGIPISTAVIGTDQFRSNGTLTTAYASALSSFNGVTAGFYRGNWSMLLTALSSDSKNDVLATPSIVTLDNMEATFNVGQEVPVLTGSQTTSADNIFNTVERKTVGIKLRVKPQINEGDSVLLQIEQEVSSVADSNSSTNSSLGVTFNTRTVNNAVMVTNGETVVVGGLLDKTSVESNDKVPLLGDIPWLGSLFRSKSQEVRKRNLMLFLRPTIIRDPGQFQEASINKYRSFNNEQQQQRGEGNGVLDNNTLRLSGGNTYTFRQVQSSISDFYKPEGR

Assays:
OutS_S49R = molecular target: T1, OutS_S49R; assay: Fluorescence quenching titration, secretin peptide binding to pilotin mutant S49R; conditions: fluorescence at 340 nm, excitation 290 nm, 15°C, 1 µM pilotin
Description: (§1) The pET-20b(+) plasmid expressing non-lipidated OutS (residues 26 to 132) fused to N-terminal PelB signal peptide has been constructed previously at a manner as the sequence of mature non-lipidated OutS after cleavage by the signal peptidase LepB is: MDP^26VKNT etc. To fuse a C-terminal 6His tag to non-lipidated OutS, SalI site was introduced at the end of outS sequence by using the primer (5′-ctt gac gcc atg cgc acc gtc gac tga ggg gga agc aac tgc) and the reverse complementary one (mutated bases are underlined). Then, by SalI/XhoI digestion the sequence coding for non-lipidated OutS was fused with that coding for 6His. Mutants of OutS were made using Strategene QuikChange and confirmed by sequencing.
(§2) Fluorescence data were collected using a Jasco FP-6300 Spectrofluorometer. […] Emission spectra were recorded at 15°C in steps of 2 nm from 310 to 400 nm. The fluorescence signal at 340 nm was plotted to calculate K d. Pilotin spectra was measured at 1 µM. […]
(§3) The Kd was determined by fitting the following equation: […]
(§4) where [PS] is the concentration of the pilotin/secretin complex, [P0] is the total concentration of the pilotin (1 µM), [S0] is the total concentration of the secretin peptide, and Kd is the dissociation constant. The observed fluorescence signal is then given by: F = FPS[PS] + FP[P]; as there are no tryptophans in the secretin peptide. […]

OutS_Q114A = molecular target: T2, OutS_Q114A; assay: Fluorescence quenching titration, secretin peptide binding to pilotin mutant Q114A; conditions: fluorescence at 340 nm, excitation 290 nm, 15°C, 1 µM pilotin
Description: as §1, §2, §3, §4

OutS_L100A = molecular target: T3, OutS_L100A; assay: Fluorescence quenching titration, secretin peptide binding to pilotin mutant L100A; conditions: fluorescence at 340 nm, excitation 290 nm, 15°C, 1 µM pilotin
Description: as §1, §2, §3, §4

OutS_L96A = molecular target: T4, OutS_L96A; assay: Fluorescence quenching titration, secretin peptide binding to pilotin mutant L96A; conditions: fluorescence at 340 nm, excitation 290 nm, 15°C, 1 µM pilotin
Description: as §1, §2, §3, §4

inner membrane = conditions: ref [21]; cited from earlier work
Description: The type II secretion system spans both the inner and outer bacterial membranes, [18]. It consists of an inner membrane subcomplex, periplasmic pseudopilins and the outer membrane secretin [19]. There have been considerable recent advances in our understanding of the T2SS secretin. First the structure of the N-terminal periplasmic domains N0, N1, and N2 in complex with a nanobody was elucidated (PDB code 3EZJ) and secondly a cryo EM reconstruction of the secretin itself has been described. In the absence of pilotin the D. dadantii secretin (OutD) mislocates to the inner ...

pspA-lacZ = pspA-lacZ induction (β-galactosidase activity); type: cell-based; conditions: E. coli MC3, 12 h at 30°C in LB
Description: (§5) Figure 4 In vivo determination of secretin interactions with pilotin. Removal of the extreme C-terminal region of the secretin results in mislocalization of the secretin to the inner membrane (A) Sequence of the C-terminus of Dickeya dadantii secretin (OutD) along with the secondary structure prediction for this region; the predicted three helices are marked “H”. The sequences of the three secretin deletion mutants (OutDΔC1 to OutDΔC3) and the C-terminal secretin peptides used are shown. (B) Stabilization of truncated derivatives of the secretin (OutD) by pilotin (OutS) in vivo. E. coli MC3 cells expressing an OutD derivative (indicated above) and either OutS (+) or empty pACT3 vector (−) were grown for 12 h at 30°C in LB medium and then analyzed by immunoblotting with OutD antibodies. In the same cultures, β-galactosidase activity was assessed to estimate expression of pspA-lacZ. An elevated level of pspA reflects mislocalization of the corresponding secretin derivative to the inner membrane. […] The whole membrane fraction from E. coli NM522 cells coexpressing the indicated secretin derivatives and pilotin was separated by flotation sucrose gradient centrifugation and analyzed by immunoblotting with OutD- antibodies or stained with Coomassie G-250 to detect the major porins, which reflect the position of the outer membrane. […]

E. coli NM522 cells = assay: Membrane location by flotation sucrose gradient centrifugation; type: cell-based; conditions: with pilotin OutS, immunoblot
Description: as §5

Molecule	Kd (OutS_S49R)	Kd (OutS_Q114A)	Kd (OutS_L100A)	Kd (OutS_L96A)	location of secretin in absence of pilotin (inner membrane)	pspA (β-galactosidase activity) (pspA-lacZ; OutS: +)	pspA (β-galactosidase activity) (pspA-lacZ; OutS: − (empty pACT3 vector))	outer membrane location / targeting (E. coli NM522 cells)
CC[C@H](C)[C@H](NC(=O)[C@H](CO)NC(=O)[C@H](CO)NC(=O)[C@H](CCC(N)=O)NC(=O)[C@@H](NC(=O)[C@H](CCC(N)=O)NC(=O)[C@H](CCCNC(=N)N)NC(=O)[C@H](Cc1ccccc1)NC(=O)[C@@H](NC(=O)[C@H](Cc1ccc(O)cc1)NC(=O)[C@@H](N)[C@@H](C)O)[C@@H](C)O)C(C)C)C(=O)N[C@@H](CO)C(=O)N[C@@H](CC(=O)O)C(=O)N[C@@H](Cc1ccccc1)C(=O)N[C@@H](Cc1ccc(O)cc1)C(=O)N[C@@H](CCCCN)C(=O)N1CCC[C@H]1C(=O)N[C@@H](CCC(=O)O)C(=O)O [18 residue secretin peptide] (H-TYTFRQVQSSISDFYKPE-OH)	> 200 µM	1100 ± 350 nM	2100 ± 500 nM	5.3 ± 1.2 µM				
B1					mislocates to the inner membrane	800	1100	promotes the outer membrane location
